Test results: patent US20070020183A1, “Perfluoroalkyl-containing complexes, process for their production as well as their use” (priority 2005, published 2007)

How the values were obtained:
[1] = Relaxivity in water (NMR pulse spectrometer Minispec PC 20); assay type: physicochemical; settings: 40° C., 0.47 T
Procedure: The T1 and T2 relaxation times of water and plasma (from cows) with increasing concentrations of the gadolinium complexes (I-XIII) contained therein were determined at 40° C. with use of an NMR pulse spectrometer (Minispec PC 20) at 0.47 T, and the relaxivity was determined.

[2] = Plasma kinetics after intravenous administration in rats (ICP-AES); assay type: in vivo; settings: i.v., 50 μmol of total gadolinium/kg of body weight
Procedure: After intravenous administration of 50 μmol of total gadolinium/kg of body weight of the gadolinium complexes (I-X) in rats (n=3), blood samples were taken via a catheter in the common carotid artery at different points in time ([…] to 24 hours p.i.), the metal content was determined by means of atomic emission spectrometry (ICP-AES) and converted to plasma values via a conversion factor (0.625). The elimination half-life was calculated by means of special software (WinNonlin) from the plasma concentrations.

[3] = Excretion after intravenous administration in rats (ICP-AES); assay type: in vivo; settings: i.v., 50 μmol of total gadolinium/kg of body weight, 14 days after administration
From the text: After intravenous administration of 50 μmol of total gadolinium/kg of body weight of the gadolinium complexes (I-X) in rats (n=3), the metal content was l determined in fractions up to 14 days after administration by means of atomic emission spectrometry (ICP-AES) in the excretion media of urine and feces, as well as in the body (the rest of the body).

[4] = test system: mice; test: Acute toxicity after one-time intravenous administration in mice; assay type: in vivo; settings: one-time i.v., observation period of 7 days, determined preliminarily
Procedure: After intravenous administration of the gadolinium complexes (I-X) in mice (n=3; rate of injection: 2 ml/min), the acute systemic compatibility (LD50) was determined preliminarily. In each case, several dosages with an observation period of 7 days were examined. The acute toxicities that are to be expected can be seen in Table 1.

[5] = test system: arteriosclerotic plaque; test: MRT visualization of arteriosclerotic plaque; assay type: in vivo, Watanabe rabbits (WHHL rabbits); settings: WHHL rabbits, i.v. 50 μmol or 100 μmol of Gd/kg, 6 or 24 hours, T1-weighted IR-TFL; not in vascular wall of healthy control animals
Procedure: The pictures of FIG. 2 show MR images of the aorta 6 or 24 hours after intravenous administration of 50 μmol or 100 μmol of Gd/kg of body weight of gadolinium complex I (title substance of Example 1f), gadolinium complex IV (title substance of Example 11e), and gadolinium complex VIII (title substance of Example 16c) in Watanabe rabbits (WHHL rabbits; genetically-induced arteriosclerosis) and in control animals without arteriosclerosis (white New Zealands). […] The localization of the plaque, especially in the aortic arch as well as in the vascular passages, was confirmed by means of Sudan-3 staining. With this test, the suitability of the compounds according to the invention as markers for arteriosclerotic plaque could be shown.

[6] = test system: iliac lymph nodes and i.m.-implanted VX2 tumors; test: MRT visualization of lymph node metastases and primary tumors in VX2-tumor-carrying rabbits; assay type: in vivo; settings: rabbits with VX2 tumors, i.v. 50 μmol of Gd/kg
Procedure: The pictures of FIG. 1 show MR images of iliac lymph nodes precontrast as well as up to 24 hours after intravenous administration of 50 μmol of Gd/kg of body weight of gadolinium complex VIII (title substance of Example 16c) in rabbits with i.m.-implanted VX2 tumors. […] Zones where there was no signal rise within the lymph node were diagnosed as metastases and confirmed histologically (H/E staining of the lymph node sections).
At later times (24 hours p.i.), this enhancement also propagates toward the center of the tumor.

| Compound | Relaxivity R1(w) [1] | Elimination Half-Life of Blood [2] | Gd Content of Blood 24 Hours p.i. [2] [%] | Body Retention 14 days [3] [%] | LD50 Mouse [4] | MR signal in the arteriosclerotic plaque [5] | MR signal in healthy lymph node tissue ([6]; T1-weighted turbo-spin-echo, 15 to 60 minutes p.i.) | MR enhancement in the primary tumor ([6]; immediately after administration, especially in the periphery) |
| --- | --- | --- | --- | --- | --- | --- | --- | --- |
| CC(C(=O)NCC(=O)NCCCC[C@H](NC(=O)CO[C@H]1O[C@H](CO)[C@@H](O)[C@H](O)[C@@H]1O)C(=O)NCCCC(F)(F)C(F)(F)C(F)(F)C(F)(F)C(F)(F)C(F)(F)F)N1CCN(CC(=O)[O-])CCN(CC(=O)[O-])CCN(CC(=O)[O-])CC1.[Gd+3] (stereo partly drawn) [Gadolinium complex II, Gadolinium complex of 6-N-[1,4,7-tris-(carboxylatomethyl)-1,4,7,10-tetraazacyclododecane-10-N-(pentanoyl-3-aza-4-oxo-5-methyl-5-yl)]-2-N-(1-O-α-d-carbonylmethylmannopyranose)-L-lysine-[(1H,1H,2H,2H-perfluorooctyl)-methyl]-amide] | R1(w): 5.7 l/(mmol * s) | 0.9 hour^ hours | 0.0 | 0.0 | 10 mmol/kg | – | – | – |
| CC(C(=O)NCC(=O)NCCCC[C@H](NC(=O)CO[C@H]1O[C@H](CO)[C@@H](O)[C@H](O)[C@@H]1O)C(=O)NCCCOCCC(F)(F)C(F)(F)C(F)(F)C(F)(F)C(F)(F)C(F)(F)C(F)(F)C(F)(F)F)N1CCN(CC(=O)[O-])CCN(CC(=O)[O-])CCN(CC(=O)[O-])CC1.[Gd+3] (stereo partly drawn) [Gadolinium complex III, Gadolinium complex of 6-N-[1,4,7-tris-(carboxylatomethyl)-1,4,7,10-tetraazacyclododecane-10-N-(pentanoyl-3-aza-4-oxo-5-methyl-5-yl)]-2-N-(1-O-α-d-carbonylmethylmannopyranose)-L-lysine-[(1H,1H,2H,2H,4H,4H,5H,5H-3-oxa-perfluorotridecyl)-methyl]-amide] | R1(w): 17.8 l/(mmol * s) | 6.2 h | 1.6 | 1.5 | ≧10 mmol/kg | – | – | – |
| COCCN(CCOCCC(F)(F)C(F)(F)C(F)(F)C(F)(F)C(F)(F)C(F)(F)C(F)(F)C(F)(F)F)C(=O)[C@H](CCCCNC(=O)CNC(=O)C(C)N1CCN(CC(=O)[O-])CCN(CC(=O)[O-])CCN(CC(=O)[O-])CC1)NC(=O)CO[C@H]1O[C@H](CO)[C@@H](O)[C@H](O)[C@@H]1O.[Gd+3] (stereo partly drawn) [Gadolinium complex IV, Gadolinium complex of 6-N-[1,4,7-tris-(carboxylatomethyl)-1,4,7,10-tetraazacyclododecane-10-N-(pentanoyl-3-aza-4-oxo-5-methyl-5-yl)]-2-N-(1-O-α-d-carbonylmethylmannopyranose)-L-lysine-N-(2-methoxyethyl)-N-(1H,1H,2H,2H,4H,4H,5H,5H-3-oxa-perfluorotridecyl)-amide] | R1(w): 16.6 l/(mmol * s) | 5.3 h | 1.8 | 2.6 | ≧15 mmol/kg | strong signal rise | – | – |
| CC(C(=O)NCC(=O)N[C@@H](CCCCNC(=O)CO)C(=O)NCCCC(F)(F)C(F)(F)C(F)(F)C(F)(F)C(F)(F)C(F)(F)C(F)(F)C(F)(F)F)N1CCN(CC(=O)[O-])CCN(CC(=O)[O-])CCN(CC(=O)[O-])CC1.[Gd+3] (stereo partly drawn) [Gadolinium complex IX, Gadolinium complex of 2-N-[1,4,7-tris-(carboxylatomethyl)-1,4,7,10-tetraazacyclododecane-10-N-(pentanoyl-3-aza-4-oxo-5-methyl-5-yl)]-6-N-(2-hydroxyacetyl)-L-lysine-[(1H,1H,2H,2H-perfluorodecyl)-methyl]-amide] | R1(w): 18.8 l/(mmol * s) | 4.3 h | 0.5 | 0.2 | >10 mmol/kg | – | – | – |
| COCCN(CCC(F)(F)C(F)(F)C(F)(F)C(F)(F)C(F)(F)C(F)(F)C(F)(F)C(F)(F)F)C(=O)[C@H](CCCCNC(=O)CNC(=O)C(C)N1CCN(CC(=O)[O-])CCN(CC(=O)[O-])CCN(CC(=O)[O-])CC1)NC(=O)CO[C@H]1O[C@H](CO)[C@@H](O)[C@H](O)[C@@H]1O.[Gd+3] (stereo partly drawn) [Gadolinium complex V, Gadolinium complex of 6-N-[1,4,7-tris-(carboxylatomethyl)-1,4,7,10-tetraazacyclododecane-10-N-(pentanoyl-3-aza-4-oxo-5-methyl-5-yl)]-2-N-(1-O-α-d-carbonylmethylmannopyranose)-L-lysine-N-(2-methoxyethyl)-N-(1H,1H,2H,2H-perfluorodecyl)-amide] | R1(w): 18.3 l/(mmol * s) | 6.7 h | 2.1 | 0.0 | 15 mmol/kg | – | – | – |
| CC(C(=O)NCC(=O)NCCCC[C@H](NC(=O)COCC(CO)(CO)CO)C(=O)NCCCC(F)(F)C(F)(F)C(F)(F)C(F)(F)C(F)(F)C(F)(F)C(F)(F)C(F)(F)F)N1CCN(CC(=O)[O-])CCN(CC(=O)[O-])CCN(CC(=O)[O-])CC1.[Gd+3] (stereo partly drawn) [Gadolinium complex VI, Gadolinium complex of 6-N-[1,4,7-tris-(carboxylatomethyl)-1,4,7,10-tetraazacyclododecane-10-N-(pentanoyl-3-aza-4-oxo-5-methyl-5-yl)]-2-N-[(3-hydroxy-2,2-dihydroxymethylpropoxy)-acetyl]-L-lysine-[(1H,1H,2H,2H-perfluorodecyl)-methyl]-amide] | R1(w): 16.9 l/(mmol * s) | 7.7 h | 2.6 | 0.0 | >10 mmol/kg | – | – | – |
| COC[C@H]1O[C@H](OCC(=O)NC(CCCCNC(=O)CNC(=O)C(C)N2CCN(CC(=O)[O-])CCN(CC(=O)[O-])CCN(CC(=O)[O-])CC2)C(=O)N(C)CCC(F)(F)C(F)(F)C(F)(F)C(F)(F)C(F)(F)C(F)(F)C(F)(F)C(F)(F)F)[C@@H](OC)[C@@H](OC)[C@@H]1OC.[Gd+3] (stereo partly drawn) [Gadolinium complex VII, Gadolinium complex of 6-N-[1,4,7-tris-(carboxylatomethyl)-1,4,7,10-tetraazacyclododecane-10-N-(pentanoyl-3-aza-4-oxo-5-methyl-5-yl)]-2-N-[1-O-α-d-carbonylmethyl-(2,3,4,6-tetra-O-methyl)mannopyranose]-L-lysine-[(1H,1H,2H,2H-perfluorodecyl)-methyl]-amide] | R1(w): 14.7 l/(mmol * s) | 5.4 h | 1.2 | 5.4 | ≦15 mmol/kg | – | – | – |
| CC(C(=O)NCC(=O)N[C@@H](CCCCNC(=O)CO[C@H]1O[C@H](CO)[C@@H](O)[C@H](O)[C@@H]1O)C(=O)N(C)CCC(F)(F)C(F)(F)C(F)(F)C(F)(F)C(F)(F)C(F)(F)C(F)(F)C(F)(F)F)N1CCN(CC(=O)[O-])CCN(CC(=O)[O-])CCN(CC(=O)[O-])CC1.[Gd+3] (stereo partly drawn) [Gadolinium complex VIII, Gadolinium complex of 2-N-[1,4,7-tris-(carboxylatomethyl)-1,4,7,10-tetraazacyclododecane-10-N-(pentanoyl-3-aza-4-oxo-5-methyl-5-yl)]-6-N-(1-O-α-d-carbonylmethylmannopyranose)-L-lysine-[(1H,1H,2H,2H-perfluorodecyl)-methyl]-amide] | R1(w): 20.6 l/(mmol * s) | 4.3 h | 0.5 | 0.0 | ≧10 mmol/kg | strong signal rise | strong signal rise | clear enhancement |
